Measured values as given in patent US20210379210A1, “RADIOLIGANDS FOR IMAGING THE LPA1 RECEPTOR” (BRISTOL-MYERS SQUIBB COMPANY, priority 2018, published 2021).

What was measured:
[1] = In-vivo PET imaging in bleomycin treated rat model, LPA1 target engagement (% displacement); conditions: Sprague Dawley, rat, lung, intravenous, bleomycin treated rats, baseline
Description: (§1) [^18F]-(1S,3S)-3-(((6-(5-((((4-(fluoro)butyl)(methyl)carbamoyl)oxy)methyl)-1-methyl-1H-1,2,3-triazol-4-yl)-2-methylpyridin-3-yl)oxy)cyclohexane-1-carboxylic acid was tested to confirm its properties, specificity and targeting of the LPA1 receptor in aged-matched wild type (Sprague Dawley rat, Charles River Laboratory, PA) and bleomycin-induced pulmonary fibrosis rat models. The bleomycin-induced pulmonary fibrosis rat model was generated in anesthetized rats that were administered bleomycin (2 μL/g) via oropharyngeal instillation. For oropharyngeal instillation, anesthetized rats (isoflurane, 4% in 100% 02) were placed on a slanted board/tilting workstation and bleomycin was dripped onto the vocal cords, facilitating aspiration. Rats were then returned to their cages until they fully recovered from anesthesia and were monitored daily for the duration of the experiment. In this experiment, the [^18F]-labeled LPA1 antagonist, produced as described in the above Examples, was tested for its ability to discriminate between normal lung in wild type rats and increased lung LPA1 expression in the bleomycin rat disease model. The bleomycin treated rats were used at 14 and 15 days post bleomycin treatment. […] For PET image acquisition, rats were placed in an anesthetic induction chamber and 3% isoflurane inhalant anesthesia was delivered in 100% O2 at a rate of 1-1.5 L/min. Once sedated, the rats were removed from the induction chamber and placed into a plexiglass 2-chamber holder (custom-made by BMS-Applied Biotechnology group) within the gantry of the PET system (microPET® F220™, Siemens Preclinical Solutions, Knoxville, Tenn.) where they remained for the duration of the study. Anesthesia was maintained with 1-1.5% isoflurane inhalant anesthesia delivered in 100% 02 at a rate of 2 L/min via the nose-cone. Animals were kept warm using an external standalone temperature regulating unit (M2M Imaging Corp) to prevent hypothermia during imaging. Rat respiration was continuously monitored during imaging procedures and isoflurane was adjusted dependent on depth of anesthesia. A 10-minute transmission image was first acquired using a ^57Co point source for the purpose of attenuation correction of the final PET images and confirmation of lung localization for region of interest (ROI) analysis. The scanning region was located beginning at the neck area and extending toward the hind limbs of each animal in order to place the lungs within the 7.6 cm microPET system axial field of view (FOV). Upon completion of the transmission scan, each rat received administration of between 19.5-29.7 MBq (542-803 μCi) of [^18F]-(1S,3S)-3-(((6-(5-((((4-(fluoro)butyl)(methyl) carbamoyl)oxy)methyl)-1-methyl-1H-1,2,3-triazol-4-yl)-2-methylpyridin-3-yl)oxy)cyclohexane-1-carboxylic acid tracer via tail vein catheter followed by a 2 hour dynamic PET emission scan. […] Images were reconstructed using a maximum a posteriori (MAP) algorithm with attenuation correction using the collected transmission images and corrected for radioisotope decay. The PET images were then co-registered with corresponding transmission images using anatomical landmarks (air in lung) and boundaries of the animal holder. Images were analyzed by Inveon Research Workstation (Siemens Medical Solutions USA Inc., PA). Analysis for each rat was done with regions of interest (ROIs) drawn onto each whole lung and a section of the liver using the co-registered transmission images. There were 3-4 ROIs drawn for each lung volume (left whole lung and right whole lung) as well as 3 ROIs drawn on a section of the liver. ROIs were drawn inside the whole lung to avoid spillover signal from the heart and liver. ROIs were drawn on a section of the liver using the same method. Based on quantitative values from these ROIs (nCi/cc), % injected dose/cc (% ID/g) was calculated. Radiotracer uptake was compared across lung tissues in these groups using the time periods between 60-90 minutes post radioligand injection. […]

LPA1 = LPA1 (Rattus norvegicus, UniProt P61794); assay: as above; conditions: bleomycin treated rats
Chain of LPA1 (P61794 whole entry): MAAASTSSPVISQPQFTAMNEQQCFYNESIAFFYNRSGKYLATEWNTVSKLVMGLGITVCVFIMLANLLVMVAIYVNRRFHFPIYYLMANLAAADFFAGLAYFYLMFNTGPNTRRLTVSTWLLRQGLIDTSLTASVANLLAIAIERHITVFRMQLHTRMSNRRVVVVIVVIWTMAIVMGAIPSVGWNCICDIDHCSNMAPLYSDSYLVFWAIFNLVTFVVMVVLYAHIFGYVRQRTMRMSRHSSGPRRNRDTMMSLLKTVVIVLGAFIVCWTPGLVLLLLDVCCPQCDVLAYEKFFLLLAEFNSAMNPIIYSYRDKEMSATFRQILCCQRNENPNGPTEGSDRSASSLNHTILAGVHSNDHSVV
Description: as §1

tissue uptake ([1]; 1 mg/kg, Group 1 (1 mg/kg group, n=6)): 0.12 ± 0.01 %ID/g
tissue uptake ([1]; 3 mg/kg, Group 2 (3 mg/kg group, n=6)): 0.1 ± 0.01 %ID/g
tissue uptake ([1]; 10 mg/kg, Group 3 (10 mg/kg group, n=6)): 0.12 ± 0.02 %ID/g
tissue uptake ([1]; 30 mg/kg, Group 4 (30 mg/kg group, n=7)): 0.09 ± 0.01 %ID/g
tissue uptake ([1]; 100 mg/kg, Group 5 (100 mg/kg group, n=6)): 0.1 ± 0.01 %ID/g
Baseline % ID/g in Lung, Mean (LPA1; Group 1 (1 mg/kg group, n=6), listed as [^18F]-(1S,3S)-3-(6-(5-((((4-(fluoro)butyl)(methyl)carbamoyl)oxy)methyl)-1-meth, 1 mg/kg))): 0.12 % ID/g
Baseline % ID/g in Lung, Mean (LPA1; Group 2 (3 mg/kg group, n=6), listed as [^18F]-(1S,3S)-3-(6-(5-((((4-(fluoro)butyl)(methyl)carbamoyl)oxy)methyl)-1-meth, 3 mg/kg))): 0.10 % ID/g
Baseline % ID/g in Lung, Mean (LPA1; Group 3 (10 mg/kg group, n=6), listed as [^18F]-(1S,3S)-3-(6-(5-((((4-(fluoro)butyl)(methyl)carbamoyl)oxy)methyl)-1-meth, 10 mg/kg))): 0.12 % ID/g
Baseline % ID/g in Lung, Mean (LPA1; Group 4 (30 mg/kg group, n=7), listed as [^18F]-(1S,3S)-3-(6-(5-((((4-(fluoro)butyl)(methyl)carbamoyl)oxy)methyl)-1-meth, 30 mg/kg))): 0.09 % ID/g
Baseline % ID/g in Lung, Mean (LPA1; Group 5 (100 mg/kg group, n=6), listed as [^18F]-(1S,3S)-3-(6-(5-((((4-(fluoro)butyl)(methyl)carbamoyl)oxy)methyl)-1-meth, 100 mg/kg))): 0.10 % ID/g
Structure (SMILES): Cc1nc(-c2nnn(C)c2COC(=O)N(C)CCCC[18F])ccc1O[C@H]1CCC[C@H](C(=O)O)C1 [Example 16]
